Measurements from patent publication US5840684A, “Glycopeptide antibiotic derivatives” (Eli Lilly and Company, priority 1995, dated 1998).
In brackets after ≈: the same amount, converted by molar mass.

Assays:
Streptococcus pyogenes = experiment: mouse protection, experimentally-induced infection; format: in vivo; conditions: mice infected with Streptococcus pyogenes, two doses
Stapylococcus aureus = experiment: mouse protection, experimentally-induced infection; format: in vivo; conditions: mice infected with Stapylococcus aureus, two doses
Entercoccus faecium 180 = experiment: broth micro-dilution MIC; format: cell-based; conditions: Entercoccus faecium 180
Experimental: (§1) The formula I compounds have in vitro and in vivo activity against Gram-positive pathogenic bacteria. The MIC's were determined using a standard broth micro-dilution assay.

[1] = test system: Staphylococcus epidermidis 270; experiment: broth micro-dilution MIC; format: cell-based
Experimental: as §1

[2] = test system: Enterococcus gallinarum 245; experiment: broth micro-dilution MIC; format: cell-based; conditions: Enterococcus gallinarum 245
Experimental: as §1

Entercoccus faecium 2041 = experiment: broth micro-dilution MIC; format: cell-based; conditions: Entercoccus faecium 2041
Experimental: as §1

Streptococcus pneumoniae = experiment: mouse protection, experimentally-induced infection; format: in vivo; conditions: mice infected with Streptococcus pneumoniae, two doses
[3] = test system: vancomycin-resistant enterococci; experiment: broth micro-dilution, mean geometric MIC; format: cell-based, Enterococcus faecium and Enterococcus faecalis; conditions: enterococci, 24-hour incubation
[4] = test system: Staphylococcus aureus SA1199A; experiment: broth micro-dilution MIC; format: cell-based
Experimental: (§2) The MIC's were determined using a standard broth micro-dilution assay.

[5] = test system: Staphylococcus aureus X778; experiment: broth micro-dilution MIC; format: cell-based
Experimental: as §2

[6] = test system: Entercoccus faecium 180-1; experiment: broth micro-dilution MIC; format: cell-based
Experimental: as §2

[7] = test system: Staphylococcus aureus 491; experiment: broth micro-dilution MIC; format: cell-based
Experimental: as §2

[8] = test system: Staphylococcus aureus X400; experiment: broth micro-dilution MIC; format: cell-based
Experimental: as §2

[9] = test system: Staphylococcus aureus 489; experiment: broth micro-dilution MIC; format: cell-based
Experimental: as §2

[10] = test system: Streptococcus pyogenes C203; experiment: broth micro-dilution MIC; format: cell-based
Experimental: as §2

Entercoccus faecium 276 = experiment: broth micro-dilution MIC; format: cell-based
Experimental: as §2

[11] = test system: vancomycin-susceptible enterococci; experiment: broth micro-dilution, mean geometric MIC; format: cell-based, Enterococcus faecium and Enterococcus faecalis; conditions: enterococci, 24-hour incubation
Leuconostoc citreum = experiment: agar dilution MIC, lactic acid bacteria; format: cell-based; conditions: brain-heart infusion agar
[12] = test system: Streptococcus pneumoniae P1; experiment: broth micro-dilution MIC; format: cell-based
Experimental: as §1

[13] = test system: Staphylococcus haemolyticus 415; experiment: broth micro-dilution MIC; format: cell-based
Experimental: as §1

[14] = test system: Staphylococcus haemolyticus 105; experiment: broth micro-dilution MIC; format: cell-based
Experimental: as §1

Pediococcus acidilacti = experiment: agar dilution MIC, lactic acid bacteria; format: cell-based; conditions: Pediococcus acidilacti (mean of 10), brain-heart infusion agar
[15] = test system: Leuconostoc mesenteroides; experiment: agar dilution MIC, lactic acid bacteria; format: cell-based; conditions: Leuconostoc mesenteroides (mean of 4), brain-heart infusion agar
[16] = test system: Staphylococcus aureus S13E; format: cell-based
Experimental: as §2

[17] = test system: Staphylococcus aureus SA1199B; format: cell-based
Experimental: as §2

[18] = test system: Staphylococcus aureus 446; experiment: broth micro-dilution MIC; format: cell-based
Experimental: as §2

[19] = test system: Staphylococcus aureus 447; experiment: broth micro-dilution MIC; format: cell-based
Experimental: as §2

[20] = test system: Staphylococcus aureus SA1199; experiment: broth micro-dilution MIC; format: cell-based
Experimental: as §2

[21] = test system: Leuconostoc pseudomesenteroides; experiment: agar dilution MIC, lactic acid bacteria; format: cell-based; conditions: brain-heart infusion agar

| SMILES | ED50 (Streptococcus pyogenes) [mg/kg/2] | ED50 (Stapylococcus aureus) [mg/kg/2] | MIC (Entercoccus faecium 180) [µg/mL] | MIC [1] [µg/mL] | MIC [2] [µg/mL] | MIC (Entercoccus faecium 2041) [µg/mL] | ED50 (Streptococcus pneumoniae) | mean geometric MIC, Vancomycin Resistant Strains [3] [µg/mL] | MIC [4] [µg/mL] | MIC [5] [µg/mL] | MIC [6] [µg/mL] | MIC [9] [µg/mL] | MIC [10] [µg/mL] | MIC (Entercoccus faecium 276) [µg/mL] | mean geometric MIC, Vancomycin Sensitive Strains [11] [µg/mL] | MIC [12] [µg/mL] | MIC [13] [µg/mL] | MIC [14] [µg/mL] | MIC [16] [µg/mL] | MIC [19] [µg/mL] | other results |
| --- | --- | --- | --- | --- | --- | --- | --- | --- | --- | --- | --- | --- | --- | --- | --- | --- | --- | --- | --- | --- | --- |
| CCCCCc1ccc(-c2ccc(CNC3(C)CC(OC4C(Oc5c6cc7cc5Oc5ccc(cc5Cl)C(OC5CC(C)(N)C(O)C(C)O5)C5NC(=O)C(NC(=O)C7NC(=O)C(CC(N)=O)NC(=O)C(NC(=O)C(CC(C)C)NC)C(O)c7ccc(c(Cl)c7)O6)c6ccc(O)c(c6)-c6c(O)cc(O)cc6C(C(=O)O)NC5=O)OC(CO)C(O)C4O)OC(C)C3O)cc2)cc1 (stereo not drawn) [Compound 22] | > 0.5 | 0.049 | 1 (≈ 0.547 µM) | 4 (≈ 2.19 µM) | 1 (≈ 0.547 µM) | 2 (≈ 1.09 µM) | > .05 mg/kg/2 | 1.0 | 4 (≈ 2.19 µM) | 8 (≈ 4.37 µM) | ≤ 0.06 | 8 (≈ 4.37 µM) | ≤ 0.06 | 4 (≈ 2.19 µM) | 1.5 |  |  |  |  |  | MIC [7]: 8 µg/mL (≈ 4.37 µM); MIC [8]: 8 µg/mL (≈ 4.37 µM) |
| CNC(CC(C)C)C(=O)NC1C(=O)NC(CC(N)=O)C(=O)NC2C(=O)NC3C(=O)NC(C(=O)NC(C(=O)O)c4cc(O)cc(O)c4-c4cc3ccc4O)C(OC3CC(C)(N)C(O)C(C)O3)c3ccc(c(Cl)c3)Oc3cc2cc(c3OC2OC(CO)C(O)C(O)C2OC2CC(C)(NCc3ccc(OCc4ccccc4)c(OC)c3)C(O)C(C)O2)Oc2ccc(cc2Cl)C1O (stereo not drawn) [Compound 52] | 0.046 | 0.052 | 2 (≈ 1.1 µM) | 0.5 (≈ 0.275 µM) | 1 (≈ 0.55 µM) | 0.5 (≈ 0.275 µM) | 0.074 mg/kg/2 | 0.59 | ≤ 0.06 | 0.5 (≈ 0.275 µM) | ≤ 0.06 | 0.5 (≈ 0.275 µM) | ≤ 0.06 | 0.125 (≈ 0.0687 µM) | 0.11 | ≤ 0.06 | 1 (≈ 0.55 µM) | 0.5 (≈ 0.275 µM) | 0.5 (≈ 0.275 µM) | ≤ 0.06 | MIC (Leuconostoc citreum): > 128 µg/mL; MIC (Pediococcus acidilacti): 55 µg/mL (≈ 30.2 µM); MIC [15]: 76 µg/mL (≈ 41.8 µM); MIC [17]: 2 µg/mL (≈ 1.1 µM); MIC [18]: ≤ 0.06 µg/mL; MIC [20]: 2 µg/mL (≈ 1.1 µM); MIC [8]: ≤ 0.06 µg/mL |
| CNC(CC(C)C)C(=O)NC1C(=O)NC(CC(N)=O)C(=O)NC2C(=O)NC3C(=O)NC(C(=O)NC(C(=O)O)c4cc(O)cc(O)c4-c4cc3ccc4O)C(OC3CC(C)(N)C(O)C(C)O3)c3ccc(c(Cl)c3)Oc3cc2cc(c3OC2OC(CO)C(O)C(O)C2OC2CC(C)(NCc3ccc(OCc4ccccc4)c(OCc4ccccc4)c3)C(O)C(C)O2)Oc2ccc(cc2Cl)C1O (stereo not drawn) [Compound 53] | 0.16 | 0.077 | 1 (≈ 0.528 µM) | 2 (≈ 1.06 µM) | 2 (≈ 1.06 µM) | 1 (≈ 0.528 µM) | 0.071 mg/kg/2 | 0.35 |  | 2 (≈ 1.06 µM) | 2 (≈ 1.06 µM) |  | ≤ 0.06 | 8 (≈ 4.22 µM) | 0.25 | ≤ 0.06 | 2 (≈ 1.06 µM) | 2 (≈ 1.06 µM) | 2 (≈ 1.06 µM) | 4 (≈ 2.11 µM) | MIC [17]: 2 µg/mL (≈ 1.06 µM); MIC [18]: 2 µg/mL (≈ 1.06 µM); MIC [20]: 2 µg/mL (≈ 1.06 µM); MIC [7]: 2 µg/mL (≈ 1.06 µM) |
| CNC(CC(C)C)C(=O)NC1C(=O)NC(CC(N)=O)C(=O)NC2C(=O)NC3C(=O)NC(C(=O)NC(C(=O)O)c4cc(O)cc(O)c4-c4cc3ccc4O)C(OC3CC(C)(N)C(O)C(C)O3)c3ccc(c(Cl)c3)Oc3cc2cc(c3OC2OC(CO)C(O)C(O)C2OC2CC(C)(NCc3ccc(Oc4ccc([N+](=O)[O-])cc4)cc3)C(O)C(C)O2)Oc2ccc(cc2Cl)C1O (stereo not drawn) [Compound 57] | 0.054 | 0.041 | 0.5 (≈ 0.275 µM) | 0.5 (≈ 0.275 µM) | 2 (≈ 1.1 µM) | ≤ 0.06 | 0.046 mg/kg/2 | 0.35 | ≤ 0.06 | ≤ 0.06 | ≤ 0.06 | 0.5 (≈ 0.275 µM) | ≤ 0.06 | 0.5 (≈ 0.275 µM) | 0.041 | ≤ 0.06 | 1 (≈ 0.55 µM) | 8 (≈ 4.4 µM) | ≤ 0.06 | 0.5 (≈ 0.275 µM) | MIC [20]: ≤ 0.06 µg/mL |
| CNC(CC(C)C)C(=O)NC1C(=O)NC(CC(N)=O)C(=O)NC2C(=O)NC3C(=O)NC(C(=O)NC(C(=O)O)c4cc(O)cc(O)c4-c4cc3ccc4O)C(OC3CC(C)(N)C(O)C(C)O3)c3ccc(c(Cl)c3)Oc3cc2cc(c3OC2OC(CO)C(O)C(O)C2OC2CC(C)(NCc3cccc4c3OCO4)C(O)C(C)O2)Oc2ccc(cc2Cl)C1O (stereo not drawn) [Compound 58] |  |  | 8 (≈ 4.63 µM) | 4 (≈ 2.32 µM) | 0.4 (≈ 0.232 µM) | 0.5 (≈ 0.29 µM) |  | 5.7 | ≤ 0.06 | ≤ 0.06 |  | ≤ 0.06 | ≤ 0.06 | 0.5 (≈ 0.29 µM) | 0.76 | ≤ 0.06 | 8 (≈ 4.63 µM) | 4 (≈ 2.32 µM) | ≤ 0.06 | 1 (≈ 0.579 µM) | MIC (Leuconostoc citreum): 128 µg/mL (≈ 74.1 µM); MIC (Pediococcus acidilacti): 55 µg/mL (≈ 31.9 µM); MIC [21]: 128 µg/mL (≈ 74.1 µM); MIC [20]: ≤ 0.06 µg/mL; MIC [8]: ≤ 0.06 µg/mL |
